From patent publication US7622487B2, “Piperidine derivative, process for producing the same, and use” (Takeda Pharmaceutical Company Limited, priority 2002, dated 2009)
Counter-ions that a name gives are not always drawn. Like-named read-outs stand apart in the source and are kept apart here.

How the values were obtained:
[1] = target: T1, substance P receptor from human lymphoblast cells (IM-9) (Homo sapiens, UniProt P25103); assay: Radioligand receptor binding inhibitory activity (125I-BHSP binding, receptor from human lymphoblast cells (IM-9))
T1 construct: The receptor was prepared from human lymphoblast cells (IM-9); endogenous in cells; host or cells: IM-9 human lymphoblast cells (crude membrane fraction, 40,000xG pellet)
T1 sequence (P25103 whole entry): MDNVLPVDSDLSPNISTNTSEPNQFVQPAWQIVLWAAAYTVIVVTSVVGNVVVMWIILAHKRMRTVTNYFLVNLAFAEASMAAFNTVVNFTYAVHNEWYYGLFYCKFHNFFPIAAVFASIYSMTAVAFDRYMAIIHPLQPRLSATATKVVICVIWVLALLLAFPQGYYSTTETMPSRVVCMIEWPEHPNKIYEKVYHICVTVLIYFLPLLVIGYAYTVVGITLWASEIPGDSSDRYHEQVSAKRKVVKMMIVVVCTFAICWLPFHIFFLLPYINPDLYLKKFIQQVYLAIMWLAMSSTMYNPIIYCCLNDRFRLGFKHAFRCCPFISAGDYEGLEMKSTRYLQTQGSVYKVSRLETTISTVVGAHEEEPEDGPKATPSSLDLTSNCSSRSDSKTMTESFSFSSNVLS
Method: Radioligand receptor binding inhibitory activity (Binding inhibitory activity using receptor from human lymphoblast cells (IM-9))
The method of M. A. Cascieri et al., “Molecular Pharmacology 42, p. […] The receptor was prepared from human lymphoblast cells (IM-9). IM-9 cells (2×10^5 cells/ml) were inoculated and incubated for 3 days (one liter), which was then subjected to centrifuge for 5 minutes at 500×G to obtain cell pellets. […] The residue was twice washed with 30 ml of the above-mentioned buffer, which was then preserved frozen (−80° C.) as a specimen of the receptor.
The specimen was suspended in a reaction buffer (50 mM Tri-HCl buffer (pH 7.4), 0.02% bovine serum albumin, 1 mM phenylmethylsulfonyl fluoride, 2 μg/ml chymostatin, 40 μg/ml bacitracin and 3 mM manganese chloride) to have protein in the concentration of 0.5 mg/ml of protein and 100 μl portion of the suspension was used in the reaction. […] The amount of nonspecific binding was determined by adding substance P at a final concentration of 2×10^−6 M.
After the reaction, using a cell harvester (290 PHD, Cambridge Technology, Inc, U.S.A.), rapid filtration was carried out through a glass filter (GF/B, Whatman, U.S.A.) to stop the reaction. After washing three times with 250 μl of 50 mM Tris-HCl buffer (pH 7.4) containing 0.02% bovine serum albumin, the radioactivity remaining on the filter was determined with a gamma counter. Before use, the filter was immersed in 0.1% polyethyleneimine for 24 hours and air-dried.

[2] = 125I-BHSP binding, receptor from human lymphoblast cells (IM-9), 25° C., 30 minutes, read-out: IC50 Value

SMILES	IC50 [1, 2]	other results
CNC(=O)N1CCC(NCc2cc(-n3nnnc3C(F)(F)F)cc3c2OCC3)C(c2ccccc2)C1 (racemic) [Example 722]	0.11 nM	
COc1ccc(-n2nnnc2C(F)(F)F)cc1CNC1CCN(C(=O)CNC(C)=O)CC1c1ccccc1 (racemic) [Example 753]		IC50 [1]: 0.073 nM
COc1ccc(-n2nnnc2C(F)(F)F)cc1CNC1CCN(C(=O)C2CCN(S(C)(=O)=O)CC2)CC1c1ccccc1 (racemic) [Example 755]	0.096 nM	
COc1ccc(-n2nnnc2C(F)(F)F)cc1CNC1CCN(C(=O)Cn2cnnn2)CC1c1ccccc1 (racemic) [Example 757]	0.067 nM	
COc1ccc(-n2nnnc2C(F)(F)F)cc1CNC1CCN(C(=O)CO)CC1c1ccccc1 (racemic) [Example 760]	0.085 nM	
COc1ccc(-n2nnnc2C(F)(F)F)cc1CNC1CCN(C(=O)CCNC(C)=O)CC1c1ccccc1 (racemic) [Example 761]		IC50 [1]: 0.054 nM
COc1ccc(-n2nnnc2C(F)(F)F)cc1CNC1CCN(C(C)=O)CC1c1ccccc1 (racemic) [Example 762]		IC50 [1]: 0.049 nM
COc1ccc(-n2nnnc2C(F)(F)F)cc1CNC1CCN(C(=O)CS(C)(=O)=O)CC1c1ccccc1 (racemic) [Example 763]	0.08 nM	
COc1ccc(-n2nnnc2C(F)(F)F)cc1CNC1CCN(C(=O)CN2C(=O)CCC2=O)CC1c1ccccc1 (racemic) [Example 764]	0.042 nM	
CNC(=O)N1CC[C@H](OCc2cc(C(F)(F)F)cc(C(F)(F)F)c2)[C@H](Cc2ccccc2)C1 (relative stereo) [Example 405, cis-3-Benzyl-4-[[3,5-bis(trifluoromethyl)benzyl]oxy]-N-methyl-1-piperidinecarboxamide]		melting point: 160 to 161 °C
CNC(=O)N1CC[C@H](NCc2cc(-n3nnnc3C(F)(F)F)ccc2OC)[C@H](c2ccccc2)C1 (single isomer, unassigned) [Example 72, (+)-cis-4-[[2-Methoxy-5-[5-(trifluoromethyl)-1H-tetrazol-1-yl]benzyl]amino]-N-methyl-3-phenyl-1-piperidinecarboxamide hydrochloride]	0.032 nM	
CCNC(=O)N1CC[C@H](NCc2cc(-n3nnnc3C(F)(F)F)ccc2OC)[C@H](c2ccccc2)C1 (single isomer, unassigned) [Example 75, (+)-cis-N-Ethyl-4-[[2-methoxy-5-[5-(trifluoromethyl)-1H-tetrazol-1-yl]benzyl]amino]-3-phenyl-1-piperidinecarboxamide hydrochloride]	0.025 nM	
COCC(=O)N1CC[C@H](NCc2cc(-n3nnnc3C(F)(F)F)ccc2OC)[C@H](c2ccccc2)C1 (single isomer, unassigned) [Example 78, (+)-cis-1-(Methoxyacetyl)-N-[2-methoxy-5-[5-(trifluoromethyl)-1H-tetrazol-1-yl]benzyl]-3-phenyl-4-piperidineamine hydrochloride]	0.06 nM	
CC(=O)N1CCC(C(=O)N2CC[C@H](NCc3cc(-n4nnnc4C(F)(F)F)cc4c3OCC4)[C@H](c3ccccc3)C2)CC1 (single isomer, unassigned) [Example 88, (−)-cis-1-[(1-Acetyl-4-piperidinyl)carbonyl]-3-phenyl-N-[[5-[5-(trifluoromethyl)-1H-tetrazol-1-yl]-2,3-dihydro-1-benzofuran-7-yl]methyl]-4-piperidineamine hydrochloride]	0.06 nM	
CNC(=O)N1CCC(OCc2cc(C(F)(F)F)cc(C(F)(F)F)c2)C(c2ccccc2)C1 (single isomer, unassigned; (+)) [Example 413, (+)-cis-4-[[3,5-Bis(trifluoromethyl)benzyl]oxy]-N-methyl-3-phenyl-1-piperidinecarboxamide]	0.23 nM	
CCNC(=O)N1CCC(NCc2cc(OC(F)(F)F)ccc2OC)C(c2ccccc2)C1 (single isomer, unassigned; (+)) [Example 613, (+)-cis-N-Ethyl-4-[[2-methoxy-5-(trifluoromethoxy)benzyl]amino]-3-phenyl-1-piperidinecarboxamide]	0.07 nM	
COc1ccc(-n2nnnc2C(F)(F)F)cc1CNC1CCN(C(=O)C2CCN(C(C)=O)CC2)CC1c1ccccc1 (single isomer, unassigned; (-)) [Example 81, (−)-cis-1-[(1-Acetyl-4-piperidinyl)carbonyl]-N-[2-methoxy-5-[5-(trifluoroinethyl)-1H-tetrazol-1-yl]benzyl]-3-phenyl-4-piperidineamine hydrochloride]	0.058 nM	
CCNC(=O)N1CCC(NCc2cc(-n3nnnc3C(F)(F)F)cc3c2OCC3)C(c2ccccc2)C1 (single isomer, unassigned; (-)) [Example 84, (−)-cis-N-Ethyl-3-phenyl-4-[[[5-[5-(trifluoromethyl)-1-H-tetrazol-1-yl]-2,3-dihydro-1-benzofuran-7-yl]methyl]amino]-1-piperidinecarboxamide hydrochloride]	0.051 nM	
CC(=O)N1CCC(C(=O)N2CC[C@H](OCc3cc(C(F)(F)F)cc(C(F)(F)F)c3)[C@H](c3ccccc3)C2)CC1 [Example 70, (+)-(3R,4S)-1-[(1-Acetyl-4-piperidinyl)carbonyl]-4-[[3,5-bis(trifluoromethyl)benzyl]oxy]-3-phenylpiperidine]	0.15 nM	
